Patent US6313090A, “Methods for treating parasitic infection using thiopeptides” (The United States of America as represented by the …, priority 2000, dated 2001)
Read-outs that look alike come from different tables or passages of the source.

Tested on: C. parvum GCH1 oocysts
Assay: Intact C. parvum oocyst assay on MDBKF5D2 cell monolayers, immunofluorescence
Assay type: cell-based
Details: for inhibition at 2000 µg/mL / inhibition at 250 µg/mL / inhibition at 500 µg/mL / inhibition at 1000 µg/mL: Cryptosporidium parvum
Method: In vitro doses of drugs. Thiostrepton (Calbiochem) was dissolved in sterile complete Dulbecco's Modified Eagle Medium (DMEM) supplemented with dimethyl sulfoxide (DMSO) at 0.2% and tested at concentrations of 800, 400, 200, and 100, 10, 1 and 0.1 μg/ml.
(§1) Intact C. parvum oocyst asset 3.0×10^4 C. parvum GCH1 oocysts per well were incubated in the above-mentioned concentrations of drug at 37° C. (8% CO2) on confluent MDBKF5D2 cell monolayers in 96 well microtiter plates. The level of infection in each well was determined and analyzed by immunofluorescence assay at 48 hours, using C. parvum sporozoite rabbit anti-serum (0.1%) and fluorescein-conjugated goat anti-rabbit antibody (1.0%). Percent inhibition was calculated by subtracting the mean parasite/drug from the mean parasitelmedium, divided by the mean parasite/medium, all of which was multiplied by 100. The analysis was performed using MCID and an inverted microscope.
In vitro doses of drugs. Thiostrepton (Calbiochem) and Phavic (NTZ) were dissolved in sterile complete Dulbecco's Modified Eagle Medium (DMEM) supplemented with dimethyl sulfoxide (DMSO) at 0.2% and tested at concentrations of 800, 400, 200, and 100 μg/ml. NTZ was tested at concentrations of 100, 10, 1 and 0.1 μg/ml. Paromomycin (Sigma) was dissolved in DMEM and tested at concentrations of 2000, 1000, 500 and 250 μg/ml.
as §1, with “assay .” for “asset”, “plates. For some monolayers, the oocysts were incubated in DMEM on the cell monolayers for four hours, at which time the monolayers were washed and then drug was added to the wells.” for “plates.”, “parasite/medium,” for “parasitelmedium,”
In vitro doses of drugs. Thiostrepton (Calbiochem), Phavic (NTZ) were dissolved in sterile complete Dulbecco's Modified Eagle Medium (DMEM) supplemented with dimethyl sulfoxide (DMSO) at 0.2%. Thiostrepton was tested at a concentration of 800 μg/ml. NTZ was tested at a concentration of 10 μg/ml. Paromomycin was dissolved in DMEM and tested at 2000 μg/ml. Cell monolayers were infected and washed, followed by the addition of drug at time intervals of 0, 2, 4, 8 and 24 hours.
as §1, with “assay.” for “asset”, “analyze” for “analyzed”, “parasite/medium,” for “parasitelmedium,”

In the case of `NC[C@@H]1O[C@H](O[C@H]2[C@@H](O)[C@H](O[C@@H]3[C@@H](O)[C@H](N)C[C@H](N)[C@H]3O[C@H]3O[C@H](CO)[C@@H](O)[C@H](O)[C@H]3N)O[C@@H]2CO)[C@H](N)[C@@H](O)[C@@H]1O` [PRM, paromomycin], the inhibition at 2000 µg/mL (0 h, Table 5, 2000 μg/ml, drug added at 0 hrs, read-out: Inhibition Percent) is reported as 77.4%, the inhibition at 2000 µg/mL (0 h, Table 5, 2000 μg/ml, drug added at 0 hrs, read-out: Inhibition Score) is reported as 71 to 90% and the inhibition at 2000 µg/mL (2 h, Table 5, 2000 μg/ml, drug added at 2 hrs, read-out: Inhibition Percent) is reported as 89.4%. For the same compound, the inhibition at 2000 µg/mL (2 h, Table 5, 2000 μg/ml, drug added at 2 hrs, read-out: Inhibition Score) was 71 to 90%, the inhibition at 250 µg/mL (4 h, Table 4 Washed at 4 hours, 250 μg/ml, read-out: Inhibition Percent) was 59.3% and the inhibition at 250 µg/mL (4 h, Table 4 Washed at 4 hours, 250 μg/ml, read-out: Inhibition Score) was 56 to 70%. It also gave an inhibition at 500 µg/mL (4 h, Table 4 Washed at 4 hours, 500 μg/ml, read-out: Inhibition Percent) of 69.2%, an inhibition at 500 µg/mL (4 h, Table 4 Washed at 4 hours, 500 μg/ml, read-out: Inhibition Score) of 56 to 70% and an inhibition at 1000 µg/mL (4 h, Table 4 Washed at 4 hours, 1000 μg/ml, read-out: Inhibition Percent) of 79.2%. For the same compound, the inhibition at 1000 µg/mL (4 h, Table 4 Washed at 4 hours, 1000 μg/ml, read-out: Inhibition Score) was 71 to 90%, the inhibition at 2000 µg/mL (4 h, Table 4 Washed at 4 hours, 2000 μg/ml, read-out: Inhibition Percent) was 82.5% and the inhibition at 2000 µg/mL (4 h, Table 4 Washed at 4 hours, 2000 μg/ml, read-out: Inhibition Score) was 71 to 90%. It also gave an inhibition at 2000 µg/mL (4 h, Table 5, 2000 μg/ml, drug added at 4 hrs, read-out: Inhibition Percent) of 79%, an inhibition at 2000 µg/mL (4 h, Table 5, 2000 μg/ml, drug added at 4 hrs, read-out: Inhibition Score) of 71 to 90% and an inhibition at 2000 µg/mL (8 h, Table 5, 2000 μg/ml, drug added at 8 hrs, read-out: Inhibition Percent) of 72.2%. It also gave an inhibition at 2000 µg/mL (8 h, Table 5, 2000 μg/ml, drug added at 8 hrs, read-out: Inhibition Score) of 71 to 90%, an inhibition at 2000 µg/mL (24 h, Table 5, 2000 μg/ml, drug added at 24 hrs, read-out: Inhibition Percent) of 27% and an inhibition at 2000 µg/mL (24 h, Table 5, 2000 μg/ml, drug added at 24 hrs, read-out: Inhibition Score) of 0 to 30%. The inhibition at 2000 µg/mL (Table 1, 2000 μg/ml, read-out: Inhibition Percent) was 73.2%, the inhibition at 2000 µg/mL (Table 1, 2000 μg/ml, read-out: Inhibition Score) was 71 to 90% and the inhibition at 2000 µg/mL (Table 2, 2 mg/ml, read-out: Inhibition Percent) was 69.7%. For the same compound, the inhibition at 2000 µg/mL (Table 2, 2 mg/ml, read-out: Inhibition Score) was 56 to 70%, the inhibition at 250 µg/mL (Table 3 Unwashed, 250 μg/ml, read-out: Inhibition Percent) was 68% and the inhibition at 250 µg/mL (Table 3 Unwashed, 250 μg/ml, read-out: Inhibition Score) was 56 to 70%. It also gave an inhibition at 500 µg/mL (Table 3 Unwashed, 500 μg/ml, read-out: Inhibition Percent) of 71.9%, an inhibition at 500 µg/mL (Table 3 Unwashed, 500 μg/ml, read-out: Inhibition Score) of 71 to 90% and an inhibition at 1000 µg/mL (Table 3 Unwashed, 1000 μg/ml, read-out: Inhibition Percent) of 79.3%. The inhibition at 1000 µg/mL (Table 3 Unwashed, 1000 μg/ml, read-out: Inhibition Score) was 71 to 90%, the inhibition at 2000 µg/mL (Table 3 Unwashed, 2000 μg/ml, read-out: Inhibition Percent) was 81.9% and the inhibition at 2000 µg/mL (Table 3 Unwashed, 2000 μg/ml, read-out: Inhibition Score) was 71 to 90%. For the same compound, the inhibition at 2000 µg/mL (Table 6, 2 mg/ml, read-out: Inhibition Percent) was 76.3%, the inhibition at 2000 µg/mL (Table 6, 2 mg/ml, read-out: Inhibition Score) was 71 to 90% and the “Parasite Count” value (Table 1, 2000 μg/ml) was 278.06. For the same compound, the “Inhibition Percent” value (Table 2, 2 mg/ml) was 76.61%, the “Inhibition Score” value (Table 2, 2 mg/ml) was 3 (3: 71-90%) and the “Parasite Count” value (Table 2, 2 mg/ml) was 423.81. The “Parasite Count” value (Table 2, 2 mg/ml, listed as PRM/DMSO) was 369.81, the “Parasite Count” value (Table 3 Unwashed, 250 μg/ml) was 453.94 and the “Parasite Count” value (Table 3 Unwashed, 500 μg/ml) was 398.31. The “Parasite Count” value (Table 3 Unwashed, 1000 μg/ml) was 293.56, the “Parasite Count” value (Table 3 Unwashed, 2000 μg/ml) was 256.38 and the “Parasite Count” value (Table 4 Washed at 4 hours, 250 μg/ml) was 492.13. The “Parasite Count” value (Table 4 Washed at 4 hours, 500 μg/ml) was 372.44, the “Parasite Count” value (Table 4 Washed at 4 hours, 1000 μg/ml) was 251.88 and the “Parasite Count” value (Table 4 Washed at 4 hours, 2000 μg/ml) was 211.38. The “Parasite Count” value (Table 5, 2000 μg/ml, drug added at 0 hrs) was 287.63, the “Parasite Count” value (Table 5, 2000 μg/ml, drug added at 2 hrs) was 134.94 and the “Parasite Count” value (Table 5, 2000 μg/ml, drug added at 4 hrs) was 267.25. The “Parasite Count” value (Table 5, 2000 μg/ml, drug added at 8 hrs) was 354.06, the “Parasite Count” value (Table 5, 2000 μg/ml, drug added at 24 hrs) was 929.19 and the “Parasite Count” value (Table 6, 2 mg/ml) was 325.75. The “activity when drug is added 24 hours after infection” value (intracellular stages only) was “activity drops”.
